Laboratory results as given in patent US8173689B2 (Novartis AG, priority 2006, dated 2012).
Read-outs that look alike come from different tables or passages of the source.

Tests used:
[1] = target: T1, kinase domain of cKIT (Homo sapiens, UniProt P10721); assay: Inhibition of cKIT kinase signaling in an in vitro biochemical assay (alphascreen); details: tested at about 1 μM, read-out: cKit percent inhibition
T1 construct: The kinase domain of cKIT was assayed in 50 mM Hepes; purchased Upstate 14-559

[2] = target: T2, cytoplasmic domain of the human CSF-1R (Homo sapiens, UniProt P07333); assay: In vitro kinase assay for colony stimulating factor-1 receptor (AlphaScreen); format: biochemical; details: tested at about 1 μM, read-out: CSF-1R percent inhibition
T2 construct: Recombinant protein corresponding to the cytoplasmic domain of the human CSF-1R; purchased Invitrogen Corporation, Carlsbad, Calif; PV3249
T2 sequence (P07333 539-972 limits assumed): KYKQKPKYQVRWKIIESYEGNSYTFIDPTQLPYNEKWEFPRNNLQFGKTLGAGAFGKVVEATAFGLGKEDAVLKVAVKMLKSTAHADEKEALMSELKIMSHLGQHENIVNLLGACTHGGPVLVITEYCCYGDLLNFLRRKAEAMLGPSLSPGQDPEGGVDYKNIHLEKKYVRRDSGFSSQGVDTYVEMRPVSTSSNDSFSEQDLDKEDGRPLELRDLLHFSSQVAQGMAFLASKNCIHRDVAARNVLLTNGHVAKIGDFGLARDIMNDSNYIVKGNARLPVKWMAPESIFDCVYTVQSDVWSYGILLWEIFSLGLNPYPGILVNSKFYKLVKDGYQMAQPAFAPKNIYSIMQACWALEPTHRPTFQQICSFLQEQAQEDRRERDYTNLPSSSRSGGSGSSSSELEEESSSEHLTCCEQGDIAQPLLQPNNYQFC
Procedure, shortened: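 At a low ATP level of 1 μM, phosphate transfer by the cytoplasmic-domain kinase (4 nM) was quantified with an AlphaScreen anti-phosphotyrosine bead pair.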

[3] = target: T3, kinase domain of PDGFRβ (Homo sapiens, UniProt P09619); assay: Inhibition of PDGFRb kinase signaling in an in vitro biochemical assay (alphascreen); details: tested at about 1 μM, read-out: PDGFRβ percent inhibition
T3 construct: The kinase domain of PDGFRβ was assayed in 50 mM Hepes; purchased Invitrogen P3082

[4] = system: MNFS60 (murine AML cells); assay: Cell viability assay in MCSF dependent MNFS60 cells (Cell Titer Glo); format: cell-based; details: Mus musculus, tested at about 1 μM, read-out: M-NFS-60 CP percent inhibition
Procedure, shortened: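 Cells are cultured with 10 ng/ml MCSF and test compound for 72 hrs at 37° C. in 5% CO2. CellTiter-Glo reagent is then added to gauge viable cell number, and EC50s are fitted from triplicates.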

[5] = target: T4, full-length human CSF-1R receptor (Homo sapiens, UniProt P07333); assay: In vitro inhibition of CSF-1R receptor tyrosine phosphorylation in transfected HEK293H cells stimulated with MCSF; format: cell-based; details: HEK293-H, tested at about 1 μM, read-out: pCSF1R percent inhibition
T4 construct: transfected with the full-length human CSF-1R receptor cloned in house; expressed in transfected cells; host or cells: HEK293H (Invitrogen Cat. #11631017)
Method: The lysate was then transferred to total CSF-1R antibody coated 96-well plates that had already been blocked with 3% Blocker A from Mesoscale discovery (MSD) for 2 hours and washed afterwards. Lysates were incubated overnight at 4° C. and the plates were then washed 4× with MSD Tris Wash Buffer. […] The plates were read on the Sector 6000 instrument (MSD). Raw data was imported in Abase and EC50s calculated with XL-fit data analysis software.

T4 sequence (P07333 20-972): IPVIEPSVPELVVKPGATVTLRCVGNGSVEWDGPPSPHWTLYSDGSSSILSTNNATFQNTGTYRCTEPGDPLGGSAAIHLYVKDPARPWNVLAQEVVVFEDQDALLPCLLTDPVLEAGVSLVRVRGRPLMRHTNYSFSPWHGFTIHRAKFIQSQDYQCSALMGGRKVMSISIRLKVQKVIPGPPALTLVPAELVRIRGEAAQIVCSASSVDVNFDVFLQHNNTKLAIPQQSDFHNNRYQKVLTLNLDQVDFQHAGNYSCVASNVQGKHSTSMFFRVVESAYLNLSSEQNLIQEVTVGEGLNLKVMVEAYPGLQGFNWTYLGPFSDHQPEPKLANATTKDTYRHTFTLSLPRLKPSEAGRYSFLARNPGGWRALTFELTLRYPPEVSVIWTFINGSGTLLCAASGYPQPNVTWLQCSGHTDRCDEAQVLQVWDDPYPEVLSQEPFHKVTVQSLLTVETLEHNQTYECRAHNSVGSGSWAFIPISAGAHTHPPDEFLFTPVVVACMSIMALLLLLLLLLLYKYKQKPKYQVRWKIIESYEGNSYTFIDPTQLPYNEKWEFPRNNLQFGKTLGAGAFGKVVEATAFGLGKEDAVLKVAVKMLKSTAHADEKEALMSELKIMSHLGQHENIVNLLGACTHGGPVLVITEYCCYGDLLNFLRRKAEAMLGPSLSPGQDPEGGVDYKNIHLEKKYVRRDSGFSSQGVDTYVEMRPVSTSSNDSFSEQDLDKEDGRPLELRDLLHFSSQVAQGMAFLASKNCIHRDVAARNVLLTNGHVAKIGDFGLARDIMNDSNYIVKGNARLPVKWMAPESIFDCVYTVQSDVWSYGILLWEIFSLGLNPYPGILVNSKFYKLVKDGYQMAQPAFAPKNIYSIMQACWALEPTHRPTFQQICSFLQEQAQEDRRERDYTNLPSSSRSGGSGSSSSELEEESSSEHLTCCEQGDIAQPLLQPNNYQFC
T1 sequence (P10721 589-937 limits assumed): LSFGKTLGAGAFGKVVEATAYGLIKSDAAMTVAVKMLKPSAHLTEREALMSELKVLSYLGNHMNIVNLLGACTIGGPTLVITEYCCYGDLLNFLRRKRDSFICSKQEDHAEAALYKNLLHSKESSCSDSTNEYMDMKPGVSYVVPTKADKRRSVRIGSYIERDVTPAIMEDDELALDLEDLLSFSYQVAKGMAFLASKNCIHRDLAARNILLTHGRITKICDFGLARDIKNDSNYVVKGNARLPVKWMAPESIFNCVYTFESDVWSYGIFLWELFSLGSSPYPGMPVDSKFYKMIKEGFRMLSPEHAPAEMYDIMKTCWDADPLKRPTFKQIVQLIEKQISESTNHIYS
T3 sequence (P09619 600-962 limits assumed): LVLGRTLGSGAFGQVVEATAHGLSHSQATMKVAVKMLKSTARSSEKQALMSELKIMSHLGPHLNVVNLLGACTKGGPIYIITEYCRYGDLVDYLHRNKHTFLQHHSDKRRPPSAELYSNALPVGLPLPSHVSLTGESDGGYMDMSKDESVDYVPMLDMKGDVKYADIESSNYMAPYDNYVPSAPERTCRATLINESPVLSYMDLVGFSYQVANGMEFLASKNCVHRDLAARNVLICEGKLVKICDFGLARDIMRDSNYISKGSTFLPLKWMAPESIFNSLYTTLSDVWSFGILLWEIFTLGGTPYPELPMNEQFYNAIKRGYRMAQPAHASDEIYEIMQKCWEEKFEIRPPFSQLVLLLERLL

| Compound | inhibition at 1 µM [1] [%] | inhibition at 1 µM [2] [%] | inhibition at 1 µM [3] [%] | inhibition at 1 µM ([5]; HEK293H cells) [%] | inhibition at 1 µM ([1]; compounds of Table 3) [%] | inhibition at 1 µM ([2]; compounds of Table 3) [%] | inhibition at 1 µM ([3]; compounds of Table 3) [%] | inhibition at 1 µM ([5]; compounds of Table 3) [%] | inhibition at 1 µM ([4]; compounds of Table 3) [%] | also measured |
| --- | --- | --- | --- | --- | --- | --- | --- | --- | --- | --- |
| CNC(=O)c1cc(Oc2ccc3nc(NCc4cccc(Cl)c4Cl)sc3c2)ccn1 [Compound 134, 4-[2-(2,3-Dichloro-benzylamino)-benzothiazol-6-yloxy]-pyridine-2-carboxylic acid methylamide] | 98 | 98 | 0 | 93 | – | – | – | – | – | inhibition at 1 µM ([4]; MNFS60 cells): 93% |
| CNC(=O)c1cc(Oc2ccc3nc(NCCc4ccccc4Cl)sc3c2)ccn1 [Example 319, 4-(2-(2-chlorophenylethylamino)benzo[d]thiazol-6-yloxy)-N-methylpicolinamide] | 93 | 100 | 24 | 91 | – | – | – | – | – | inhibition at 1 µM ([4]; MCSF dependent MNFS60 cells): 61% |
| CNC(=O)c1cc(Oc2ccc3nc(NCc4ccccc4OC)sc3c2)ccn1 [Compound 132, 4-[2-(2-Methoxy-benzylamino)-benzothiazol-6-yloxy]-pyridine-2-carboxylic acid methylamide] | 98 | 99 | 58 | 98 | – | – | – | – | – | inhibition at 1 µM ([4]; MNFS60 cells): 100% |
| CNC(=O)c1cc(Oc2ccc3nc(NC[C@@H](O)c4ccccc4)sc3c2)ccn1 [Compound 145] | – | – | – | – | 39 | 100 | 33 | 86 | 58 | – |
| CNC(=O)c1cc(Oc2ccc3nc(NCC4CCCCCC4)oc3c2)ccn1 [Compound 101, 4-[2-(Cycloheptylmethyl-amino)-benzooxazol-6-yloxy]-pyridine-2-carboxylic acid methylamide] | 85 | 99 | 91 | 91 | – | – | – | – | – | inhibition at 1 µM ([4]; MNFS60 cells): 85% |
| CNC(=O)c1cc(Oc2ccc3nc(N[C@@H]4CCCC[C@H]4O)sc3c2Br)ccn1 [Example 376, 4-(7-bromo-2-((1R,2R)-2-hydroxycyclohexylamino)benzo[d]thiazol-6-yloxy)-N-methylpicolinamide] | 72 | 100 | 28 | 77 | – | – | – | – | – | inhibition at 1 µM ([4]; MCSF dependent MNFS60 cells): 87% |
| CNC(=O)c1cc(Oc2ccc3nc(NCc4ccccc4OC)oc3c2)ccn1 [Compound 17, 4-[2-(2-Methoxy-benzylamino)-benzooxazol-6-yloxy]-pyridine-2-carboxylic acid methylamide] | 85 | 100 | 10 | 94 | – | – | – | – | – | inhibition at 1 µM ([4]; MNFS60 cells): 81% |
| CNC(=O)c1cc(Oc2ccc3nc(N[C@@H]4CCCC[C@H]4CO)sc3c2)ccn1 [Example 299, 4-(2-((1R,2R)-2-(hydroxymethyl)cyclohexyl-amino)benzo[d]thiazol-6-yloxy)-N-methylpicolinamide] | – | – | – | – | 32 | 100 | 57 | 95 | 94 | – |
| CNC(=O)c1cc(Oc2ccc3nc(Nc4ccccc4CCN4CCCCC4)oc3c2)ccn1 [Compound 44, 4-{2-[2-(2-Piperidin-1-yl-ethyl)-phenylamino]-benzooxazol-6-yloxy}-pyridine-2-carboxylic acid methylamide] | – | 37 | 15 | – | 87 | 100 | 98 | 99 | 100 | inhibition at 1 µM ([1]; compounds of Table 4): 45%; inhibition at 1 µM ([2]; compounds of Table 4): 100%; inhibition at 1 µM ([3]; compounds of Table 4): 24%; inhibition at 1 µM ([4]; compounds of Table 4): 94%; inhibition at 1 µM ([5]; compounds of Table 4): 53% |
| N#Cc1ccc2c(Oc3ccc4nc(N[C@@H]5CCCC[C@H]5O)sc4c3)ccnc2c1 [Example 222, 4-(2-((1R,2R)-2-hydroxycyclohexylamino)benzo[d]thiazol-6-yloxy)quinoline-7-carbonitrile] | – | – | – | – | 52 | 100 | 69 | 68 | 91 | – |
| CNC(=O)c1cc(Oc2ccc3nc(NCCc4ccccc4OC)sc3c2)ccn1 [Example 317, 4-(2-(2-methoxyphenylethylamino)benzo[d]thiazol-6-yloxy)-N-methylpicolinamide] | 70 | 100 | 12 | 95 | – | – | – | – | – | inhibition at 1 µM ([4]; MCSF dependent MNFS60 cells): 50% |

Second part, led by results:

| inhibition at 1 µM [1] [%] | inhibition at 1 µM [2] [%] | inhibition at 1 µM [3] [%] | inhibition at 1 µM ([5]; HEK293H cells) [%] | inhibition at 1 µM ([1]; compounds of Table 3) [%] | inhibition at 1 µM ([2]; compounds of Table 3) [%] | inhibition at 1 µM ([3]; compounds of Table 3) [%] | inhibition at 1 µM ([5]; compounds of Table 3) [%] | Compound | inhibition at 1 µM ([4]; compounds of Table 3) [%] | also measured |
| --- | --- | --- | --- | --- | --- | --- | --- | --- | --- | --- |
| – | – | – | – | 25 | 100 | 18 | 95 | O[C@@H]1CCCC[C@H]1Nc1nc2ccc(Oc3ccnc(-c4ccnc(F)c4)c3)cc2s1 [Cmpd 171, (1R,2R)-2-(6-(2'-fluoro-2,4'-bipyridin-4-yloxy)benzo[d]thiazol-2-ylamino)cyclohexanol] | 96 | – |
| 27 | 100 | 41 | 16 | – | – | – | – | CNC(=O)c1cc(Oc2ccc3nc(N[C@H]4CCCC[C@@H]4OCc4ccccc4)sc3c2)ccn1 [Compound 156, 4-[2-((1S,2S)-2-Benzyloxy-cyclohexylamino)-benzothiazol-6-yloxy]-pyridine-2-carboxylic acid methylamide] | – | inhibition at 1 µM ([4]; MNFS60 cells): 63% |
| – | – | – | – | 38 | 100 | 12 | 75 | C[C@H](Nc1nc2ccc(Oc3ccnc(-c4cnc5[nH]ccc5c4)c3)cc2s1)C1CCCCC1 [Example 278, (S)-6-(2-(1H-pyrrolo[2,3-b]pyridin-5-yl)pyridin-4-yloxy)-N-(1-cyclohexylethyl)benzo[d] thiazol-2-amine] | 82 | – |
| 37 | 100 | 58 | 99 | – | – | – | – | Cn1cc(-c2cc(Oc3ccc4nc(N[C@@H](CO)C5CCCCC5)sc4c3)ccn2)cn1 [Example 347, (R)-2-cyclohexyl-2-(6-(2-(1-methyl-1H-pyrazol-4-yl)pyridin-4-yloxy)benzo[d]thiazol-2-ylamino)ethanol] | – | inhibition at 1 µM ([4]; MCSF dependent MNFS60 cells): 100% |
| – | – | – | – | 21 | 100 | 16 | 71 | OC[C@H](Nc1nc2ccc(Oc3ccnc4ccccc34)cc2s1)C1CCCCC1 [Example 240, (R)-2-cyclohexyl-2-(6-(quinolin-4-yloxy)benzo[d]thiazol-2-ylamino)ethanol] | 66 | – |
| – | – | – | – | 46 | 98 | 24 | 55 | C[C@H](Nc1nc2ccc(Oc3ccnc(-c4nc5c([nH]4)CCCC5)c3)cc2s1)C1CCCCC1 [Example 271, (S)-N-(1-cyclohexylethyl)-6-(2-(4,5,6,7-tetrahydro-1H-benzo[d]imidazol-2-yl)pyridin-4-yloxy)benzo[d]thiazol-2-amine] | 54 | – |
| – | – | – | – | 30 | 100 | 7 | 59 | COc1ccc(-c2cc(Oc3ccc4nc(N[C@@H](C)C5CCCCC5)sc4c3)ccn2)cn1 [Example 279, (S)-N-(1-cyclohexylethyl)-6-(6'-methoxy-2,3'-bipyridin-4-yloxy)benzo[d]thiazol-2-amine] | 60 | – |
